Results from patent publication US7704991B2, “Substituted diazabicyclo derivatives and their use as monoamine neurotransmitter re-uptake inhibitors” (Neurosearch A/S, priority 2005, dated 2010).
pIC50: −log10 of the molar value. Structures can show the parent of a compound that is named as a salt. Where two headings read alike, the source gives them in different places.

Columns and labels:
[1] = target: T1, dopamine (DA) reuptake in synaptosomes (Rattus norvegicus, UniProt P23977); test: In vitro inhibition of dopamine (DA) reuptake in synaptosomes; assay type: biochemical
T1 construct: in synaptosomes as described in WO 97/16451; from tissue

[2] = target: T2, noradrenaline (NA) reuptake in synaptosomes (Rattus norvegicus, UniProt Q63380); test: In vitro inhibition of noradrenaline (NA) reuptake in synaptosomes; assay type: biochemical
T2 construct: in synaptosomes as described in WO 97/16451; from tissue

[3] = target: T3, serotonine (5-HT) reuptake in synaptosomes (Rattus norvegicus, UniProt P31652); test: In vitro inhibition of serotonine (5-HT) reuptake in synaptosomes; assay type: biochemical
T3 construct: in synaptosomes as described in WO 97/16451; from tissue
Method: A number of compounds were tested for their ability to inhibit the reuptake of the monoamine neurotransmitters dopamine (DA) noradrenaline (NA) and serotonine (5-HT) in synaptosomes as described in WO 97/16451.
The test values are given as IC50 (the concentration (μM) of the test substance which inhibits the specific binding of ^3H-DA, ^3H-NA, or ^3H-5-HT by 50%).

[4] = synaptosomes, 3H-DA, read-out: DA-uptake IC50
[5] = synaptosomes, 3H-NA, read-out: NA-uptake IC50

T1 sequence (P23977 whole entry): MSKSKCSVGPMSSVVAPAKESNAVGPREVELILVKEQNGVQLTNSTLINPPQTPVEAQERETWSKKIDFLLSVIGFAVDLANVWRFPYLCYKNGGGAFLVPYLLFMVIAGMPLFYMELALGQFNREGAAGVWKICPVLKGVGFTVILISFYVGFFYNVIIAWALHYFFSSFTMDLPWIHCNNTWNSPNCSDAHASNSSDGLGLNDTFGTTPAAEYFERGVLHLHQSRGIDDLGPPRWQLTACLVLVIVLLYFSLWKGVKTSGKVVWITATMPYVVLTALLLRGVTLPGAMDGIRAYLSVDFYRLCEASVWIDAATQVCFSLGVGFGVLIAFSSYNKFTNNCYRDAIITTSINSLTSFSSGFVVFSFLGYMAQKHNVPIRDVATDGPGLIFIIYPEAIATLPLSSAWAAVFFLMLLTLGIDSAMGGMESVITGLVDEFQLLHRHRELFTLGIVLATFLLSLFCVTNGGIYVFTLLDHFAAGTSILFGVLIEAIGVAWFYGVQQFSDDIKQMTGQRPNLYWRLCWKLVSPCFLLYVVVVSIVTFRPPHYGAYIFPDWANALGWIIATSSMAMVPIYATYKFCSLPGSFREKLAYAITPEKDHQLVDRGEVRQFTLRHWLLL
T3 sequence (P31652 whole entry): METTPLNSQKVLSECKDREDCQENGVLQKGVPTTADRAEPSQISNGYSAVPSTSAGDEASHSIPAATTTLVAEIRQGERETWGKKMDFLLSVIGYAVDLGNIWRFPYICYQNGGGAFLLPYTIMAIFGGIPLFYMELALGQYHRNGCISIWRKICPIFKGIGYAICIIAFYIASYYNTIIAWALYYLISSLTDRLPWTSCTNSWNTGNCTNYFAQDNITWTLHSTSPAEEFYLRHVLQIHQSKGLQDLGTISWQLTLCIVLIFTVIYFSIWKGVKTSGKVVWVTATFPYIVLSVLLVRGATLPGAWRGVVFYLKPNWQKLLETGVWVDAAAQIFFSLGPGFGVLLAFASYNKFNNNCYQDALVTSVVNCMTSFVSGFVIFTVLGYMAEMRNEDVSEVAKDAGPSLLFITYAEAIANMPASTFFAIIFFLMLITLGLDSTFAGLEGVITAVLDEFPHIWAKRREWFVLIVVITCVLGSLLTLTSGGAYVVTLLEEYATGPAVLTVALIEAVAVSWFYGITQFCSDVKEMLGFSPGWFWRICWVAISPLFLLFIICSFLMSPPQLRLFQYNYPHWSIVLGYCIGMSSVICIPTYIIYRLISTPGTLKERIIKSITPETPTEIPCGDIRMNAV
T2 sequence (Q63380 1-617): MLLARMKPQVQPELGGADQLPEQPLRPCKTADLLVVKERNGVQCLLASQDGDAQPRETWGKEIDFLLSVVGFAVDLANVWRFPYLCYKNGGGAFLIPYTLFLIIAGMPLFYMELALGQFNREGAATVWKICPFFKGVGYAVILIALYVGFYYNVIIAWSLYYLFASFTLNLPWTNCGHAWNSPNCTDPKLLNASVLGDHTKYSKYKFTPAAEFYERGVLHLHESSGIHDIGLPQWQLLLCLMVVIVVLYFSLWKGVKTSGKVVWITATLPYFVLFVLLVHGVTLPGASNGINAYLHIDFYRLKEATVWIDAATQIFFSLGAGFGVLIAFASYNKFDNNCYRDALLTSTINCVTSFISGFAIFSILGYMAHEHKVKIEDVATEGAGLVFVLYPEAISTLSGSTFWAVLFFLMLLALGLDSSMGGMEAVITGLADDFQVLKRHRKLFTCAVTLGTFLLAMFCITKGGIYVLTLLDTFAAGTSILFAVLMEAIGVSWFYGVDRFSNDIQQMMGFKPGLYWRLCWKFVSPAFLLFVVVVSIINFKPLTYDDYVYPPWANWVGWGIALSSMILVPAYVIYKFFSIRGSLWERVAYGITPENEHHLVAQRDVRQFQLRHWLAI

Compound	melting point [°C]	pIC50 [1, 4]	pIC50 [2, 5]	pIC50 [3]	further results
COc1ccc2cc(N3CC4CCC(C3)N4C)ccc2c1 (as salt: fumaric acid salt) [1st compound of method B, 3-(6-Methoxy-naphthalen-2-yl)-8-methyl-3,8-diaza-bicyclo[3.2.1]octane]	204 to 206				
COc1ccc2cc(N3CC4CCC(C3)N4C)ccc2c1 [1st compound of method B, 3-(6-Methoxy-naphthalen-2-yl)-8-methyl-3,8-diaza-bicyclo[3.2.1]octane]					pIC50 [1]: 7.25; pIC50 [2]: 7.70; pIC50 ([3]; synaptosomes, 3H-5-HT, read-out: 5-HT-uptake IC50): 7.70
CN1C2CCC1CN(c1ccc3cc([N+](=O)[O-])ccc3n1)C2 [1st compound of method A, 2-(8-Methyl-3,8-diaza-bicyclo[3.2.1]oct-3-yl)-6-nitro-quinoline]	152.1 to 154.5	4.80	5.34	8.51	
CN1C2CCC1CN(c1ccc3ccccc3n1)C2 [2nd compound of method A, 2-(8-Methyl-3,8-diaza-bicyclo[3.2.1]oct-3-yl)-quinoline]		5.80	6.35	7.80	
CN1C2CCC1CN(c1ccc3ccccc3n1)C2 (as salt: fumaric acid salt) [2nd compound of method A, 2-(8-Methyl-3,8-diaza-bicyclo[3.2.1]oct-3-yl)-quinoline]	210 to 212				
